These results are taken from PubChem BioAssay (NCI).

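These data come from cells grown in 96-well plates and exposed to compound for 48 hours at five concentrations. Here, GI50 denotes the concentration required for 50% inhibition of growth. TGI: concentration producing complete growth inhibition.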

Test systems include SF-268 CNS; KM12 colon; SK-OV-3 ovarian; M14 melanoma; NCI-H522 lung; CAKI-1 renal; DU-145 prostate; UACC-62 melanoma; HS 578T breast; NCI-H23 lung.
Assay in all cases: DTP human tumour cell line panel, 48 h

Regarding `CN1CCN(c2ccc3nc(-c4cc(C(C)(C)C)c(O)c(C(C)(C)C)c4)[nH]c3c2)CC1`, the GI50 is 2.62 µM with SF-268 CNS; 1.8 µM in the assay with KM12 colon; 8.83 µM in the assay on SK-OV-3 ovarian; 1.68 µM with M14 melanoma; 2.11 µM in the assay with NCI-H522 lung; 1.75 µM with CAKI-1 renal. In addition, the GI50 in the assay with DU-145 prostate is 4.66 µM; with UACC-62 melanoma it was 1.87 µM; in the assay on HS 578T breast, 2.33 µM; in the assay with NCI-H23 lung, 3.31 µM. Further, the TGI was determined as 7.14 µM in the assay on SF-268 CNS; 4.32 µM in the assay with KM12 colon; 21.8 µM in the assay with SK-OV-3 ovarian; 3.37 µM in the assay on M14 melanoma; 4.33 µM in the assay on NCI-H522 lung; 3.49 µM in the assay with CAKI-1 renal. Besides, the TGI in the assay on DU-145 prostate amounted to 16 µM; with UACC-62 melanoma, 3.38 µM; in the assay on HS 578T breast, 5.51 µM; with NCI-H23 lung, 10.3 µM.
Regarding `CN1C(=O)CNC(=O)[C@H](NC(=O)c2nc3ccccc3cc2O)CSSC[C@H]1C(=O)NCCc1nc2ccccc2cc1O`, the GI50 in the assay on SF-268 CNS is 4.19 µM; in the assay on KM12 colon it was 0.96 µM; in the assay on SK-OV-3 ovarian it was over 100 µM; in the assay with M14 melanoma, 1.03 µM; in the assay on NCI-H522 lung, 2.38 µM; in the assay with CAKI-1 renal, over 46.6 µM. The GI50 in the assay on DU-145 prostate is 5.19 µM; with UACC-62 melanoma it was 7.64 µM; in the assay on HS 578T breast, 21.5 µM; in the assay on NCI-H23 lung, 13.6 µM. Besides, the TGI with SF-268 CNS is 37.9 µM; in the assay on KM12 colon, 47.7 µM; in the assay on SK-OV-3 ovarian it was over 100 µM; in the assay with M14 melanoma, 35.4 µM; in the assay on NCI-H522 lung it was 7.46 µM; in the assay on CAKI-1 renal it was over 78.1 µM. In addition, the TGI in the assay on DU-145 prostate was found to be 23.2 µM; with UACC-62 melanoma it was 38.6 µM; with HS 578T breast it was 67 µM; with NCI-H23 lung it was 60.9 µM.
For the molecule `CS(=O)(=O)CCNCc1ccc(-c2ccc3ncnc(Nc4ccc(OCc5cccc(C(F)(F)F)c5)cc4)c3c2)o1`, the GI50 with SF-268 CNS was 4.54 µM; in the assay with KM12 colon it was 5.74 µM; in the assay with SK-OV-3 ovarian, 9.25 µM; in the assay with M14 melanoma it was 6.11 µM; in the assay with NCI-H522 lung, 4.8 µM; with CAKI-1 renal it was 5.57 µM. Further, the GI50 with DU-145 prostate was 6.98 µM; in the assay on UACC-62 melanoma, 5.11 µM; in the assay on HS 578T breast, 7.02 µM; with NCI-H23 lung, 5.93 µM. Further, the TGI with SF-268 CNS is 9.82 µM; with KM12 colon it was 13.2 µM; in the assay on SK-OV-3 ovarian it was over 25 µM; in the assay on M14 melanoma it was 13.9 µM; in the assay on NCI-H522 lung it was 8.91 µM; in the assay on CAKI-1 renal, over 19.8 µM. In addition, the TGI in the assay with DU-145 prostate was over 22.6 µM; in the assay with UACC-62 melanoma it was 9.66 µM; in the assay with HS 578T breast, over 19.4 µM; in the assay with NCI-H23 lung, 15.7 µM.
Turning to `Nc1ccc2c(c1)C(=O)c1c(F)cccc1-2`, the TGI in the assay with SF-268 CNS, in the assay on KM12 colon, with SK-OV-3 ovarian, in the assay on M14 melanoma, in the assay on NCI-H522 lung and in the assay with CAKI-1 renal was over 100 µM throughout. Also, the TGI in the assay on DU-145 prostate, with UACC-62 melanoma, with HS 578T breast and with NCI-H23 lung was over 100 µM throughout.
Take `CCCCCCCCCCCCCCCc1cc(O)ccc1N`: the GI50 in the assay with SF-268 CNS was 4.33 µM; with KM12 colon, 7.43 µM; in the assay with SK-OV-3 ovarian, 31.7 µM; in the assay with M14 melanoma, over 100 µM; in the assay with NCI-H522 lung, 0.127 µM; with CAKI-1 renal it was 1.72 µM. Also, the GI50 with DU-145 prostate is over 100 µM; in the assay with UACC-62 melanoma it was 13.2 µM; with HS 578T breast it was 17 µM; with NCI-H23 lung, over 96.2 µM. In addition, the TGI in the assay on SF-268 CNS is 23.9 µM; in the assay on KM12 colon, over 100 µM; with SK-OV-3 ovarian, over 76.4 µM; in the assay on M14 melanoma, over 100 µM; with NCI-H522 lung it was 0.452 µM; in the assay with CAKI-1 renal, 7.06 µM. For the same molecule, the TGI with DU-145 prostate is over 100 µM; in the assay with UACC-62 melanoma it was over 100 µM; in the assay on HS 578T breast, 99.4 µM; in the assay on NCI-H23 lung it was over 100 µM.
Take `CC(ONC(=O)c1cc(C(F)(F)F)cc(C(F)(F)F)c1)C(=O)Nc1ccc(Cl)cc1` (stereo not given): the GI50 in the assay with SF-268 CNS was 5.2 µM; with KM12 colon it was 5 µM; in the assay on SK-OV-3 ovarian it was 12.9 µM; with M14 melanoma, 7.46 µM; in the assay on NCI-H522 lung, 4.14 µM; in the assay with CAKI-1 renal, 20.3 µM. The GI50 with DU-145 prostate is 11.5 µM; in the assay on UACC-62 melanoma it was 3.98 µM; in the assay with HS 578T breast, 5.43 µM; in the assay with NCI-H23 lung, 3.55 µM. For the same molecule, the TGI in the assay on SF-268 CNS is over 67.9 µM; in the assay on KM12 colon, 29.4 µM; in the assay on SK-OV-3 ovarian, over 85.8 µM; in the assay on M14 melanoma, 25.3 µM; in the assay on NCI-H522 lung, 22.4 µM; in the assay on CAKI-1 renal, over 76.6 µM. The TGI is over 100 µM with DU-145 prostate, 14.1 µM in the assay with UACC-62 melanoma, 42.4 µM in the assay on HS 578T breast and 10.6 µM in the assay with NCI-H23 lung.
Take `CC1(C)N=C(N)N=C(N)N1c1ccc(F)c(C(F)(F)F)c1`: the GI50 in the assay with SF-268 CNS was 0.158 µM; in the assay on KM12 colon, 1.81 µM; in the assay on SK-OV-3 ovarian, 10.7 µM; in the assay with M14 melanoma it was 0.827 µM; with NCI-H522 lung it was 3.78 µM; in the assay on CAKI-1 renal it was 4.92 µM. Moreover, the GI50 in the assay with DU-145 prostate was 3.18 µM; with UACC-62 melanoma, 2.25 µM; with HS 578T breast it was 21.2 µM; in the assay with NCI-H23 lung it was 2.53 µM. Moreover, the TGI is over 100 µM in the assay with SF-268 CNS; over 100 µM with KM12 colon; over 100 µM in the assay with SK-OV-3 ovarian; over 100 µM in the assay with M14 melanoma; over 100 µM with NCI-H522 lung; over 93.1 µM in the assay on CAKI-1 renal. Besides, the TGI in the assay with DU-145 prostate, in the assay on UACC-62 melanoma, with HS 578T breast and in the assay with NCI-H23 lung was over 100 µM each time.
Turning to `CCN(CC)CCOc1ccc(/C=C2\CC3C4CCC5=CC(=O)CC[C@]5(C)C4CC[C@]3(C)C2=O)cc1OC` (stereo not given in full), the GI50 was 2.34 µM with SF-268 CNS; 1.93 µM in the assay with KM12 colon; 2.66 µM in the assay on SK-OV-3 ovarian; 2.08 µM in the assay on M14 melanoma; 7.15 µM in the assay with NCI-H522 lung; 2.66 µM in the assay with CAKI-1 renal. Also, the GI50 in the assay with DU-145 prostate was 3.26 µM; in the assay on UACC-62 melanoma it was 2.01 µM; in the assay on HS 578T breast, 2.45 µM; in the assay with NCI-H23 lung, 3.17 µM. For the same molecule, the TGI is 5.62 µM with SF-268 CNS; 3.85 µM in the assay with KM12 colon; 8.46 µM in the assay on SK-OV-3 ovarian; 3.96 µM with M14 melanoma; over 100 µM with NCI-H522 lung; 6.54 µM in the assay on CAKI-1 renal. In addition, the TGI with DU-145 prostate was 16.4 µM; in the assay on UACC-62 melanoma, 4.13 µM; in the assay on HS 578T breast, 17.3 µM; with NCI-H23 lung it was 11 µM.
